Laboratory results from the supplement of paper PMC10307832.

Tests used:
Experiment in all cases: relative viability (nuclei count vs DMSO), 5 days (fraction); higher = more cells survive
ALW-II-49-7 + Crizotinib = compound: Cc1ccc(C(=O)Nc2cccc(C(F)(F)F)c2)cc1Nc1cncc(C(N)=O)c1 [ALW-II-49-7] + C[C@@H](Oc1cc(-c2cnn(C3CCNCC3)c2)cnc1N)c1c(Cl)ccc(F)c1Cl [Crizotinib] (partner 1 µM)
Procedure, shortened: (§1)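 Values are medians from duplicate plates. Each reflects relative viability, defined as the nuclei count of treated wells over that of vehicle wells. Lung cancer cell lines in 1536-well plates were pin-tool dosed one day after seeding with one drug alone or with a fixed anchor-drug dose plus five library-drug doses (not always all listed) in √10 steps, then fixed, stained and imaged at 4× after 5 days.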

XMD13-2 + Luminespib = compound: C1CC1C(=O)NC2=NNC3=C2C=CC(=C3)C4=CC(=CC=C4)C(=O)NC5CC5 [XMD13-2] + CCNC(=O)c1noc(-c2cc(C(C)C)c(O)cc2O)c1-c1ccc(CN2CCOCC2)cc1 [Luminespib] (partner 0.01 µM)
Procedure, shortened: as §1

ALW-II-49-7 + Foretinib = compound: Cc1ccc(C(=O)Nc2cccc(C(F)(F)F)c2)cc1Nc1cncc(C(N)=O)c1 [ALW-II-49-7] + COc1cc2c(Oc3ccc(NC(=O)C4(C(=O)Nc5ccc(F)cc5)CC4)cc3F)ccnc2cc1OCCCN1CCOCC1 [Foretinib] (partner 0.25 µM)
Procedure, shortened: as §1

Row | Cell Line | relative viability (ALW-II-49-7 + Crizotinib; first compound 0.08 µM) | relative viability (ALW-II-49-7 + Crizotinib; first compound 0.253 µM) | relative viability (ALW-II-49-7 + Crizotinib; first compound 0.8 µM) | relative viability (ALW-II-49-7 + Crizotinib; first compound 2.53 µM) | relative viability (ALW-II-49-7 + Crizotinib; first compound 8 µM) | relative viability (XMD13-2 + Luminespib; first compound 0.05 µM) | relative viability (XMD13-2 + Luminespib; first compound 0.1581 µM) | relative viability (XMD13-2 + Luminespib; first compound 0.5 µM) | relative viability (XMD13-2 + Luminespib; first compound 1.581 µM) | relative viability (XMD13-2 + Luminespib; first compound 5 µM) | relative viability (ALW-II-49-7 + Foretinib; first compound 0.08 µM) | relative viability (ALW-II-49-7 + Foretinib; first compound 0.253 µM) | relative viability (ALW-II-49-7 + Foretinib; first compound 0.8 µM) | relative viability (ALW-II-49-7 + Foretinib; first compound 2.53 µM) | relative viability (ALW-II-49-7 + Foretinib; first compound 8 µM)
1 | LCLC-97TM1 | 0.609 | 0.262 | 0.532 | 0.313 | 0.297 | 0.883 | 0.743 | 0.811 | 0.667 | 0.677 | 0.869 | 0.894 | 1.06 | 0.939 | 0.933
2 | LCLC-103H | 1.04 | 1.06 | 1.07 | 1.02 | 1.18 | 0.958 | 0.943 | 0.998 | 1.07 | 0.739 | 0.707 | 0.832 | 0.926 | 0.735 | 0.77
3 | LK-2 | 0.216 | 0.211 | 0.215 | 0.262 | 0.226 | 0.181 | 0.17 | 0.179 | 0.205 | 0.172 | – | 0.884 | 1.27 | 0.958 | 1.31
4 | LOU-NH91 | 0.744 | 0.767 | 0.728 | 0.466 | 0.703 | 0.355 | 0.318 | 0.374 | 0.347 | 0.318 | 0.912 | 0.945 | 0.921 | 0.879 | 0.944
5 | LU99A | 0.535 | 0.508 | 0.521 | 0.604 | 0.546 | 0.262 | 0.295 | 0.254 | 0.178 | 0.267 | 0.82 | 0.936 | 0.92 | 0.867 | 0.768
6 | LXF-289 | 0.817 | 0.817 | 0.911 | 0.923 | 0.876 | 0.717 | 0.618 | 0.72 | 0.76 | 0.723 | 0.98 | 1.05 | 1 | 1.07 | 1.04
7 | NCI-H23 | 0.419 | 0.475 | 0.493 | 0.598 | 0.509 | 0.222 | 0.2 | 0.21 | 0.204 | 0.21 | 0.923 | 1.01 | 1.06 | 0.993 | 1.03
8 | NCI-H322M | 0.928 | 0.689 | 0.775 | 1.04 | 0.71 | 0.874 | 0.834 | 0.804 | 0.89 | 1.23 | 0.825 | 0.996 | 0.908 | 0.771 | 0.962
9 | NCI-H358 | 0.616 | 0.412 | 0.486 | 0.435 | 0.539 | 0.487 | 0.202 | 0.418 | 0.196 | 0.321 | 0.691 | 0.658 | 0.575 | 0.809 | 0.689
10 | NCI-H441 | 0.772 | 0.714 | 0.676 | 0.598 | 0.625 | 0.314 | 0.382 | 0.375 | 0.432 | 0.315 | 1.02 | 1.01 | 1.14 | 1.22 | 0.854
11 | NCI-H460 | 1 | 0.877 | 0.802 | 1.01 | 0.793 | 0.0335 | 0.0365 | 0.0372 | 0.0316 | 0.0324 | 1.09 | 1.05 | 0.84 | 1.02 | 0.899
12 | NCI-H520 | 0.751 | 0.638 | – | 0.682 | 0.723 | 0.258 | 0.221 | 0.226 | 0.234 | 0.236 | 0.904 | 0.697 | 0.971 | 0.777 | 0.555
13 | NCI-H522 | – | – | – | – | – | 1.02 | 1.41 | 1.18 | 1.13 | 1.06 | – | – | – | – | –
14 | NCI-H596 | 0.892 | 0.911 | 0.978 | 0.997 | 1.07 | 0.987 | 1 | 0.909 | 0.903 | 1.2 | 0.949 | 0.902 | 0.886 | 0.841 | 0.937
15 | NCI-H647 | 1.07 | 1.4 | 1.28 | 0.776 | 0.67 | 0.183 | 0.289 | 0.183 | 0.229 | 0.147 | 1.36 | 1.32 | 1.23 | 1.09 | 1.06
16 | NCI-H650 | 0.679 | 0.699 | 0.62 | 0.43 | 0.516 | 0.854 | 0.757 | 0.854 | 0.822 | 0.668 | 1.16 | 1.06 | 1.01 | 0.92 | 0.638
17 | NCI-H661 | – | 1 | 0.922 | – | 1.04 | 0.904 | 0.907 | 0.904 | 0.953 | 0.725 | 1.17 | 1.08 | 0.954 | 1.01 | 0.884
18 | NCI-H1299 | 0.972 | 0.954 | 0.963 | 0.861 | 0.736 | – | – | – | – | – | 1.09 | 1.16 | 1.09 | 0.996 | 0.965
19 | NCI-H1395 | – | – | – | – | – | 0.669 | 0.668 | 0.809 | 0.66 | 0.83 | 1.09 | 1.03 | 1 | 1.03 | 0.943
20 | NCI-H1623 | – | – | – | – | – | 0.594 | 0.514 | 0.517 | 0.456 | 0.502 | 0.889 | 0.809 | 0.87 | 0.649 | 0.859
21 | NCI-H1703 | 0.859 | 0.713 | 0.554 | 0.309 | 0.211 | – | – | – | – | – | 0.271 | 0.407 | 0.306 | 0.308 | 0.352
22 | NCI-H1792 | 0.795 | 0.866 | 0.819 | 0.827 | 0.878 | 0.25 | 0.462 | 0.447 | 0.571 | 0.377 | – | – | – | – | –
23 | NCI-H1793 | – | – | – | – | – | 0.277 | – | 0.168 | 0.172 | 0.175 | 0.667 | 0.642 | 0.728 | 0.701 | 0.855
24 | NCI-H2342 | – | – | – | – | – | 0.721 | 0.712 | 0.642 | 0.767 | 0.806 | 1.19 | 0.986 | 1.07 | 1.03 | 0.981
25 | SW 900 | – | – | – | – | – | 0.192 | 0.174 | 0.2 | 0.178 | 0.19 | 0.943 | 0.866 | 0.96 | 0.913 | 0.831
